Test results reported in patent publication US8846704B2, “Thiopyrimidine-based compounds and uses thereof” (YM Biosciences Austraila Pty Ltd, priority 2007, dated 2014).

Biological target: T1, FLT-3 tyrosine kinase (Homo sapiens, UniProt P36888)
T1 construct: purchased Upstate Cell Signalling Solutions, CA, USA 14-500
T1 sequence (P36888 27-993): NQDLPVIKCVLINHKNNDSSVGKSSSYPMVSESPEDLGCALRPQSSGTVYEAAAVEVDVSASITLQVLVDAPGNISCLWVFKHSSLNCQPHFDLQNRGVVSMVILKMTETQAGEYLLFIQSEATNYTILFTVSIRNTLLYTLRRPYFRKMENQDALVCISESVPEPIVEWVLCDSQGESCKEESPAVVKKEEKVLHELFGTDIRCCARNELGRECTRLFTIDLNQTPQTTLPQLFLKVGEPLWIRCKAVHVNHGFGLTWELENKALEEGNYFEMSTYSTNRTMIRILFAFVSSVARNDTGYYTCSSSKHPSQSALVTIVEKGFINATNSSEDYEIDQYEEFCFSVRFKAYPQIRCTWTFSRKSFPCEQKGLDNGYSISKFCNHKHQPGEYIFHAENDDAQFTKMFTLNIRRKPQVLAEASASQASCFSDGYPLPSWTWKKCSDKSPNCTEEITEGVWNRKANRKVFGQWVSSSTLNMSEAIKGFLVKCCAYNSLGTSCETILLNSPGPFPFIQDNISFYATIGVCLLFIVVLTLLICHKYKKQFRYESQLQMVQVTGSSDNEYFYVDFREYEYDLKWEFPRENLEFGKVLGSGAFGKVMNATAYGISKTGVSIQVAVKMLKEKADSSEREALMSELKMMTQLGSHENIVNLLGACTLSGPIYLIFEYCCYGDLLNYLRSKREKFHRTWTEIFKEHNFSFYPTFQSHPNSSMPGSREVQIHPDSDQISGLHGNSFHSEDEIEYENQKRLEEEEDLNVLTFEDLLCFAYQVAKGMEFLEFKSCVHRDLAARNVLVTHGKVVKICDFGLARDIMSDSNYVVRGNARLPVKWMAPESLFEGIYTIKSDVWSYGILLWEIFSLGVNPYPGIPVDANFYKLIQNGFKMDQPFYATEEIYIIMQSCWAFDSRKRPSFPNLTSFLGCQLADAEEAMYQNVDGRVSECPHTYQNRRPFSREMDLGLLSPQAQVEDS
Assay: Alphascreen tyrosine kinase enzyme assay, FLT-3
Assay type: biochemical
Settings: FLT3; read-out: FMS, FLT3, or HCK IC50_nM (FLT3)
Experimental: For screening purposes, compounds (in 100% DMSO) were warmed at 37 degrees for at least 20 minutes before use. A […] stock was initially made in assay buffer, where the final concentration of DMSO was 0.3%. The stocks were then diluted in 384 well Optiplates (Packard) where the final concentration of the compound was […].
FLT-3 tyrosine kinase enzyme was purchased from Upstate Cell Signalling Solutions, CA, USA (flt-3 catalog #: 14-500).
Kinase assays were performed in 384 well Optiplates (Packard) using an Alphascreen Protein Tyrosine Kinase PY100 detection kit The compounds were pre-incubated with affinity purified PTK domain in the presence of phosphotyrosine assay buffer (10 mM HEPES, pH 7.5, 100 mM MgCl2, 25 mM NaCl, […] and 0.1% Tween 20) for 20 minutes. The compounds were then incubated with substrate in the presence of ATP. The substrate used was susbtrate-1 with the sequence biotin-EGPWLEEEEEAYGWMDF-NH2 [SEQ. ID. NO. 13] (final concentration […]). For HCK 80 μm ATP was used and incubated for 60 minutes. Alphascreen phosphotyrosine acceptor beads followed by streptavidin donor beads at a concentration of 1/100 in stop buffer were added to each well under subdued light and incubated for 2-3 hours., The Alphascreen plates were read on a Packard Fusion Alpha instrument.

Structure (SMILES): COc1cc(Nc2nccc(Sc3ccc(NCC#N)cc3)n2)cc(OC)c1OC [Compound 52, 2-(4-(2-(3,4,5-trimethoxyphenylao)pyrimidin-4-ylthio)phenylao)acetonitrile]
- IC50: < 500 nM
